In brackets after ≈: the same amount, converted by molar mass.
Tests used:
Format in all cases: cell-based
[1] = test system: more than fifty resistant contemporary clinical isolates of Pseudomonas aeruginosa; assay: MIC90 against panel of resistant clinical isolates of Pseudomonas aeruginosa; details: Pseudomonas aeruginosa
From the text: To assess this, a panel of more than fifty resistant contemporary clinical isolates of Pseudomonas aeruginosa were obtained from multiple sources including JMI Laboratories (North Liberty, Iowa), Pfizer (Groton, Conn.), Micromyx (Kalamazoo, Mich.), Dr. J. Chow (Wayne State University). Strains were characterized for resistance to a wide variety of classes of antibiotics including aminoglycosides, β-lactams and fluoroquinolones. […] This reflects the difficulty in treating clinical Pseudomonas aeruginosa infections. […] Using this stringent panel, we tested a subset of compounds of the invention (Table 4).

[2] = test system: fifty resistant contemporary clinical isolates of Klebsiella pneumoniae; assay: MIC90 against panel of resistant clinical isolates of Klebsiella pneumoniae; details: Klebsiella pneumoniae; fifty resistant contemporary clinical isolates, reference antibiotics
From the text: Using this stringent Klebsiella pneumoniae panel, we tested a subset of compounds of the invention.

[3] = test system: Pseudomonas aeruginosa (Pae, PAWT, ATCC #27853); assay: MIC against Pseudomonas aeruginosa reference strain PAWT; details: Pseudomonas aeruginosa wild type PAWT; for MIC: ATCC27853
From the text: (§1) For evaluation of efficacy, we assembled panels of representative gram-negative pathogens, including Pseudomonas aeruginosa (Pae, PAWT, ATCC #27853), Klebsiella pneumoniae (Kpn, KPWT, ATCC #700603), Acinetobacter baumannii (Aba, ABWT, ATCC #BAA-747) and Escherichia coli (Eco, ECWT, ATCC #25922). These reference strains are useful indicator organisms to characterize compound activity against bacteria from a pathogenic genus in the absence of multiple resistance mechanisms. Two strains (PAWT and ECWT) are reference strains cited within the Clinical and Laboratory Standards Institute (CLSI) Standards for susceptibility testing by Minimum Inhibitory Concentration (MIC) (SXPS2) and are well suited for quality control. ABWT and ECWT are widely susceptible to aminoglycoside antibiotics, whereas PAWT and KPWT harbor a single aminoglycoside-modifying enzyme (AGME) that targets 4,6-substituted-2-deoxystreptamine AGs. […]

[4] = test system: Klebsiella pneumoniae (Kpn, KPWT, ATCC #700603); assay: MIC against Klebsiella pneumoniae reference strain KPWT; details: Klebsiella pneumoniae KPWT, Table 2; for MIC: ATCC700603
From the text: as §1, with “These reference strains are useful indicator organisms to characterize compound activity against bacteria from a pathogenic genus in the absence of multiple resistance mechanisms.” left out

[5] = test system: Acinetobacter baumannii (Aba, ABWT, ATCC #BAA-747); assay: MIC against Acinetobacter baumannii reference strain ABWT; details: for MIC: ATCCBAA747
From the text: as §1

[6] = test system: Escherichia coli (Eco, ECWT, ATCC #25922); assay: MIC against Escherichia coli reference strain ECWT; details: for MIC: ATCC25922
From the text: For evaluation of efficacy, we assembled panels of representative gram-negative pathogens, including Pseudomonas aeruginosa (Pae, PAWT, ATCC #27853), Klebsiella pneumoniae (Kpn, KPWT, ATCC #700603), Acinetobacter baumannii (Aba, ABWT, ATCC #BAA-747) and Escherichia coli (Eco, ECWT, ATCC #25922). These reference strains are useful indicator organisms to characterize compound activity against bacteria from a pathogenic genus in the absence of multiple resistance mechanisms. Two strains (PAWT and ECWT) are reference strains cited within the Clinical and Laboratory Standards Institute (CLSI) Standards for susceptibility testing by Minimum Inhibitory Concentration (MIC) (SXPS2) and are well suited for quality control. ABWT and ECWT are widely susceptible to aminoglycoside antibiotics, whereas PAWT and KPWT harbor a single aminoglycoside-modifying enzyme (AGME) that targets 4,6-substituted-2-deoxystreptamine AGs.

[7] = test system: Pseudomonas aeruginosa PR1 (clinical isolate with intermediate aminoglycoside resistance); assay: MIC against Pseudomonas aeruginosa clinical isolate PR1; details: Pseudomonas aeruginosa resistant strain PR1
From the text: (§2) Pseudomonas aeruginosa is a prominent nosocomial pathogen. In addition to intrinsic antibiotic resistance to several antibiotics, Pseudomonas has acquired multiple additional mechanisms of resistance. As a result, therapeutic options for the treatment of infections caused by Pseudomonas aeruginosa are limited. We acquired clinical isolates of Pseudomonas aeruginosa (Micromyx LLC, Kalamazoo, Mich.), and used this panel to test compounds for Pseudomonicidal activity. […] For each strain and antibiotic, the mechanism(s) of resistance was inferred from the resistance profile. The presence of specific AGMEs was confirmed by colony PCR.

[8] = test system: Pseudomonas aeruginosa PR2 (clinical isolate with intermediate aminoglycoside resistance); assay: MIC against Pseudomonas aeruginosa clinical isolate PR2; details: Pseudomonas aeruginosa resistant strain PR2
From the text: as §2

[9] = test system: Pseudomonas aeruginosa PR3 (high-level, efflux-mediated, pan-aminoglycoside resistance); assay: MIC against Pseudomonas aeruginosa clinical isolate PR3; details: for MIC PR3: Pseudomonas aeruginosa resistant strain PR3; for MIC: Pseudomonas aeruginosa, read-out: MIC PR3
From the text: as §2

[10] = test system: Klebsiella pneumoniae screening panel KPWT, KR1, KR2, KR3; assay: Klebsiella pneumoniae screening panel (KPWT, KR1, KR2, KR3), reference AGs
From the text: Klebsiella pneumoniae (Kpn) and Escherichia coli (Eco) are gram-negative (like Pae), enteric pathogens with increasing clinical relevance. Many clinical isolates of Kpn and Eco harbor extended-spectrum beta-lactamases and are no longer sensitive to most beta-lactam antibiotics. We acquired clinical isolates of Klebsiella pneumoniae and Escherichia coli (Micromyx LLC, Kalamazoo, Mich.) and used this panel to test compounds for anti-enteric activity.

## CCN1CCN(C(=O)N[C@@H](C(=O)N[C@@H]2C(=O)N3[C@@H]2SC(C)(C)[C@@H]3C(=O)O)c2ccccc2)C(=O)C1=O [piperacillin]
[1]
  MIC90: ≥ 64 µg/mL
[2]
  MIC90: ≥ 64 µg/mL

## CO/N=C(\C(=O)N[C@@H]1C(=O)N2C(C(=O)O)=C(CSc3nc(=O)c(=O)[nH]n3C)CS[C@H]12)c1csc(N)n1 [ceftriaxone]
[1]
  MIC90: ≥ 64 µg/mL
[2]
  MIC90: ≥ 64 µg/mL

## NC[C@@H]1O[C@H](O[C@H]2[C@@H](O)[C@H](O[C@@H]3[C@@H](O)[C@H](N)C[C@H](N)[C@H]3O[C@H]3O[C@H](CN)[C@@H](O)[C@H](O)[C@H]3N)O[C@@H]2CO)[C@H](N)[C@@H](O)[C@@H]1O [neomycin]
[3]
  MIC PAWT: 32 µg/mL (≈ 52.1 µM)
[4]
  MIC KPWT: 4 to 8 µg/mL
[5]
  MIC ABWT: 0.25 to 0.5 µg/mL
[6]
  MIC ECWT: 1 µg/mL (≈ 1.63 µM)
[7]
  MIC PR1: 32 µg/mL (≈ 52.1 µM)
[8]
  MIC PR2: 8 to 16 µg/mL
[9]
  MIC PR3: >64 µg/mL

## CC(C)(O/N=C(\C(=O)N[C@@H]1C(=O)N2C(C(=O)[O-])=C(C[n+]3ccccc3)CS[C@H]12)c1csc(N)n1)C(=O)O [ceftazidime]
[1]
  MIC90: ≥ 64 µg/mL
[2]
  MIC90: ≥ 64 µg/mL

## CN[C@@H]1[C@H](O)[C@H](NC)[C@H]2O[C@@]3(O)C(=O)C[C@@H](C)O[C@H]3O[C@@H]2[C@H]1O [spectinomycin]
[3]
  MIC: > 64 µg/mL
[4]
  MIC: 64 µg/mL (≈ 193 µM)
[5]
  MIC: 16 µg/mL (≈ 48.1 µM)
[6]
  MIC: 8 to 16 µg/mL (≈ 24.1 to 48.1 µM)
[7]
  MIC: > 64 µg/mL
[8]
  MIC: > 64 µg/mL
[9]
  MIC: > 64 µg/mL

## CC(C)[C@H](N)C(=O)NC[C@H]1O[C@H](O[C@@H]2[C@H](F)[C@H](O[C@H]3O[C@H](CN)[C@@H](O)[C@H](O)[C@H]3O)[C@@H](N)C[C@H]2NC(=O)[C@@H](O)CCN)[C@H](O)[C@@H](N)[C@@H]1O [SXP1212-56″-8]
[3]
  MIC PAWT: 4 µg/mL (≈ 5.83 µM)
[7]
  MIC PR1: 8 µg/mL (≈ 11.7 µM)
[8]
  MIC PR2: 8 µg/mL (≈ 11.7 µM)
[9]
  MIC PR3: 64 µg/mL (≈ 93.3 µM)

## CN[C@@H]1[C@@H](O)[C@@H](O[C@@H]2[C@@H](O)[C@H](O[C@H]3OC(CN)=CC[C@H]3N)[C@@H](N)C[C@H]2N)OC[C@]1(C)O [sisomycin]
[3]
  MIC PAWT: 0.25 to 0.5 µg/mL
[4]
  MIC KPWT: 1 to 2 µg/mL
[7]
  MIC PR1: 4 µg/mL (≈ 8.94 µM)
[8]
  MIC PR2: >64 µg/mL
[9]
  MIC PR3: >64 µg/mL

## C[C@@H](O)[C@H]1C(=O)N2C(C(=O)O)=C(SCCN=CN)C[C@H]12 [imipenem]
[1]
  MIC90: ≥ 64 µg/mL
[2]
  MIC90: ≥ 64 µg/mL

## C[C@@H](O)[C@H]1C(=O)N2C(C(=O)O)=C(S[C@@H]3CN[C@H](CNS(N)(=O)=O)C3)[C@H](C)[C@H]12 [doripenem]
[1]
  MIC90: ≥ 64 µg/mL
[2]
  MIC90: ≥ 64 µg/mL

## NC[C@H]1O[C@H](O[C@H]2[C@H](O)[C@@H](O[C@H]3O[C@H](CO)[C@@H](O)[C@H](N)[C@H]3O)[C@H](N)C[C@@H]2N)[C@H](O)[C@@H](O)[C@@H]1O [kanamycin A]
[3]
  MIC PAWT: >64 µg/mL
[4]
  MIC KPWT: 32 µg/mL (≈ 66 µM)
[5]
  MIC ABWT: 1 µg/mL (≈ 2.06 µM)
[6]
  MIC ECWT: 4 µg/mL (≈ 8.26 µM)
[7]
  MIC PR1: >64 µg/mL
[8]
  MIC PR2: >64 µg/mL
[9]
  MIC PR3: >64 µg/mL
[10]
  potency against Klebsiella pneumoniae test panel: limited to no activity

## CO/N=C(\C(=O)N[C@@H]1C(=O)N2C(C(=O)[O-])=C(C[N+]3(C)CCCC3)CS[C@H]12)c1csc(N)n1 [cefepime]
[1]
  MIC90: ≥ 64 µg/mL
[2]
  MIC90: ≥ 64 µg/mL

## C[C@@H](O)[C@H]1C(=O)N2C(C(=O)O)=C(S[C@@H]3CN[C@H](C(=O)Nc4cccc(C(=O)O)c4)C3)[C@H](C)[C@H]12 [ertapenem]
[1]
  MIC90: ≥ 64 µg/mL
[2]
  MIC90: ≥ 64 µg/mL

## C[C@@H](O)[C@H]1C(=O)N2C(C(=O)O)=C(S[C@@H]3CN[C@H](C(=O)N(C)C)C3)[C@H](C)[C@H]12 [meropenem]
[1]
  MIC90: ≥ 64 µg/mL
[2]
  MIC90: ≥ 64 µg/mL

## C[C@H]1COc2c(N3CCN(C)CC3)c(F)cc3c(=O)c(C(=O)O)cn1c23 [levofloxacin]
[1]
  MIC90: ≥ 64 µg/mL
[2]
  MIC90: ≥ 64 µg/mL

## NC[C@H]1O[C@H](O[C@H]2[C@H](O)[C@@H](O[C@H]3O[C@H](CO)[C@@H](O)[C@H](N)[C@H]3O)[C@H](N)C[C@@H]2N)[C@H](N)C[C@@H]1O [tobramycin]
[3]
  MIC: 0.25 µg/mL (≈ 0.535 µM)
[4]
  MIC: 8 µg/mL (≈ 17.1 µM)
[5]
  MIC: 0.25 µg/mL (≈ 0.535 µM)
[6]
  MIC: 1 µg/mL (≈ 2.14 µM)
[7]
  MIC: 2 µg/mL (≈ 4.28 µM)
[8]
  MIC: > 64 µg/mL
[9]
  MIC: > 64 µg/mL
[1]
  MIC90: ≥ 64 µg/mL
[2]
  MIC90: ≥ 64 µg/mL

## C[C@H]1[C@H](NC(=O)/C(=N\OC(C)(C)C(=O)O)c2csc(N)n2)C(=O)N1S(=O)(=O)O [aztreonam]
[1]
  MIC90: ≥ 64 µg/mL
[2]
  MIC90: ≥ 64 µg/mL

## gentamycin
[3]
  MIC PAWT: 1 µg/mL
[4]
  MIC KPWT: 8 µg/mL
[5]
  MIC ABWT: 0.25 to 0.5 µg/mL
[6]
  MIC ECWT: 0.5 µg/mL
[7]
  MIC PR1: 8 µg/mL
[8]
  MIC PR2: >64 µg/mL
[9]
  MIC PR3: >64 µg/mL

## NCC[C@H](O)C(=O)N[C@@H]1C[C@H](N)[C@@H](O[C@H]2O[C@H](CN)[C@@H](O)[C@H](O)[C@H]2O)[C@@H](F)[C@H]1O[C@H]1O[C@H](CNC(=O)[C@H](N)CCCNC(N)=O)[C@@H](O)[C@H](N)[C@H]1O [SXP1212-56″-7]
[3]
  MIC PAWT: 4 µg/mL (≈ 5.38 µM)
[7]
  MIC PR1: 16 µg/mL (≈ 21.5 µM)
[8]
  MIC PR2: 16 µg/mL (≈ 21.5 µM)
[9]
  MIC PR3: 128 µg/mL (≈ 172 µM)

## [H]/N=C(/N)N[C@H]1[C@H](O)[C@@H](O)[C@H](O[C@@H]2O[C@@H](C)[C@](O)(C=O)[C@H]2O[C@@H]2O[C@@H](CO)[C@H](O)[C@@H](O)[C@@H]2NC)[C@@H](N/C(N)=N\[H])[C@@H]1O [streptomycin]
[3]
  MIC: 16 µg/mL (≈ 27.5 µM)
[4]
  MIC: 1 to 2 µg/mL (≈ 1.72 to 3.44 µM)
[5]
  MIC: 2 to 4 µg/mL (≈ 3.44 to 6.88 µM)
[6]
  MIC: 4 µg/mL (≈ 6.88 µM)
[7]
  MIC: 64 µg/mL (≈ 110 µM)
[8]
  MIC: 16 µg/mL (≈ 27.5 µM)

Source: US8586552B2, “4,6-substituted 2,5-dideoxystreptamine aminoglycoside antibiotics” (SelectX Pharmaceuticals, Inc., priority 2012, dated 2013)
